Entries after “also recorded” stand apart in the source; their conditions may differ.
Key:
[1] = test system: glutathione peroxidase (GSH-Px); test: GSH-Px activity in cortex and hippocampus after continuous perfusion of Aβ (1-40); assay type: in vivo, Wistar rats; details: Aβ (1-40) rats; for GSH-PX, hippocampus / GSH-PX, cortex: n = 7; for GSH-PX, hippocampus: model 9.32 ± 1.01, sham 16.19 ± 1.19; for GSH-PX, cortex: model 11.18 ± 1.32, sham 15.86 ± 0.91
Procedure: (§1) Male Wistar rats, which were 10-weeks old and weighed approximately 280 grams, were used. One animal was placed in one cage, while the room temperature was kept at 23° C., with food and water freely accessible. Rats were anaesthetized with sodium pentobarbital (40 mg/kg), and were fixed to stereotaxic apparatus with the position of ventral decubitus. Head skin was cut open, a cannula for Aβ (1-40) perfusion was implanted into right ventricle. According to the stereotaxic profile of rat brain by Paxions and Watson, the implantation site was located 0.3 mm behind and 1.1 mm in the right side of anterior fontanelle, with the depth of 4.0 mm. The cannula was connected to a micro-osmotic pump. The pump was placed on the back of the rat. Aβ (1-40) was dissolved in 35% acetonitrile/0.1% trifluroacetic acid, and was continuously perfused intracerebroventricularly (i.c.v.) at 300 pmol/day, while only the solvent (35% acetonitrile/0.1% trifluroacetic acid) was perfused in the control group.
(§2) Rats were randomly classified into […] groups, with 10 animals per group. 1) the sham surgery group: only 35% acetonitrile/0.1% trifluroacetic acid+solvent was perfused into the ventricles of the rats; 2) the model group: Aβ (1-40)+solvent; 3) Aβ (1-40)+L-NBP 10 mg/kg group; 4) Aβ (1-40)+L-NBP 30 mg/kg group. Respective drug or solvent was drenched since the 2nd day after the surgery. The water maze experiment was performed on the 9-13 day after the surgery, while the platform exploration experiment was performed on the 13th day, and the working memory test was performed on the 14-16th days. Animals were decapitated to remove brains for biochemical assay on the 17th day. In all ethological tests, medicines were administered 40 minutes prior to the respective test.
(§3) Malondialdehyde (MDA) and glutathione peroxidase (GSH-Px) were determined by the same assays as above.
(§4) All results were expressed in mean±standard error. Comparison of latencies between groups in water maze experiment was performed using two-factor analysis of variance in replicate. Comparison between groups was performed using post hoc LSD or Turkey test. Platform exploration test in water maze experiment, working memory test and biochemical assay were analyzed using one-factor analysis of variance. A difference was considered significant when p<0.05.

malondialdehyde (MDA) = test: MDA content in cortex and hippocampus after continuous perfusion of Aβ (1-40); assay type: in vivo, Wistar rats; details: Aβ (1-40) rats; for MDA, hippocampus / MDA, cortex: n = 7; for MDA, hippocampus: model 1.48 ± 0.12, sham 1.13 ± 0.06; for MDA, cortex: model 1.48 ± 0.14, sham 1.10 ± 0.09
Procedure: as §1, §2, §3, §4

With `CCCC[C@@H]1OC(=O)c2ccccc21` [L-NBP, L-n-butylphthalide] the “GSH-Px activity after treatment (in words)” value ([1]; 10 mg/kg) was “could also increase the activity of GSH-Px, but with no statistically significant difference”, the “GSH-PX, hippocampus” value ([1]; 10 mg/kg) was 12.73 ± 1.34 U/mg protein and the “GSH-PX, cortex” value ([1]; 10 mg/kg) was 11.73 ± 0.53 U/mg protein. The “GSH-PX, hippocampus” value ([1]; 30 mg/kg, p<0.01 vs model) was 18.91 ± 1.16 U/mg protein, the “GSH-PX, cortex” value ([1]; 30 mg/kg, p<0.01 vs model) was 15.40 ± 1.03 U/mg protein and the “GSH-Px activity after treatment (in words)” value ([1]; 30 mg/kg, p<0.01) was “increased significantly”. The “GSH-Px activity and MDA content (overall conclusion)” value [1] was “could improve GSH-Px activity and reduce MDA content”, the “MDA, hippocampus” value (malondialdehyde (MDA); 10 mg/kg, p<0.01 vs model) was 1.12 ± 0.07 nmol/mg protein and the “MDA, cortex” value (malondialdehyde (MDA); 10 mg/kg, p<0.05 vs model) was 1.06 ± 0.05 nmol/mg protein. The “reduction of hippocampal MDA content” value (malondialdehyde (MDA); 10 mg/kg, vs model, p<0.01) was 24.3%, the “reduction of cortical MDA content” value (malondialdehyde (MDA); 10 mg/kg, vs model, p<0.05) was 28.4% and the “MDA, hippocampus” value (malondialdehyde (MDA); 30 mg/kg, p<0.05 vs model) was 1.15 ± 0.07 nmol/mg protein. The “MDA, cortex” value (malondialdehyde (MDA); 30 mg/kg, p<0.05 vs model) was 1.06 ± 0.10 nmol/mg protein and the “effect on cortical and hippocampal MDA content (in words)” value (malondialdehyde (MDA); 30 mg/kg, vs model group p<0.05) was “weaker than that in the 10 mg/kg group, yet were still significantly different; also recorded: a little weaker in the 30 mg/kg group than in the 10 mg/kg group, yet still significantly different”.
